Values quoted from earlier work as cited in patent US20120097160A1, “AGGLOMERATE FORMULATIONS INCLUDING ACTIVE PHARMACEUTICAL AGENTS WITH TARGETED PARTICLE SIZES” (SCHERING CORPORATION, priority 2009, published 2012).
Like-named read-outs stand apart in the source and are kept apart here.

solubility (acetone): soluble | solubility (chloroform): soluble | solubility (ethanol): slightly soluble | solubility (isopropanol): slightly soluble | solubility (methanol): slightly soluble | solubility (tetrahydrofuran): freely soluble | solubility (water): practically insoluble
Structure (SMILES): C[C@@H]1C[C@H]2[C@@H]3CCC4=CC(=O)C=C[C@]4(C)[C@@]3(Cl)[C@@H](O)C[C@]2(C)[C@@]1(OC(=O)c1ccco1)C(=O)CCl [Mometasone furoate, 9,21-Dichloro-11(beta), 17-dihydroxy-16(alpha)-methylpregna-1,4-diene-3,20-dione 17-(2 furoate)]
